Assay results: PubChem BioAssay (NCI)
“And” between values parts separate entries of the source, which are not always exact repeats. Identical values can stand only once.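 These data come from cells grown in 96-well plates and exposed to compound for 48 hours at five concentrations. GI50 marks 50% less growth. TGI is the concentration that stops growth completely.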 Numbered stars: 1 amine (or outer) side, 2 acyl side, 3 side chain; on linkers, the order of the positions; unused ones are H or OH. Bridge positions count the residues as written; N and C are the ends. Square brackets hold non-standard residues; d marks the D form. Peptide text beside a SMILES is read from it. I, II: the chains in the order shown. Actinocin(1to9) = Cc1c2oc3c(C)ccc(C(=O)[*:2])c3nc-2c(C(=O)[*:1])c(N)c1=O; NMeY = CN[CH](Cc1ccc(O)cc1)C(=O)O; Sar = CNCC(=O)O

Experiments:
Experiment in all cases: DTP human tumour cell line panel, 48 h
COLO 205 colon = tested on: COLO 205 colon
HCT-116 colon = tested on: HCT-116 colon
HOP-92 NSCLC = tested on: HOP-92 NSCLC
HT29 colon = tested on: HT29 colon
IGROV1 ovarian = tested on: IGROV1 ovarian
OVCAR-5 ovarian = tested on: OVCAR-5 ovarian
SF-268 CNS = tested on: SF-268 CNS
SNB-19 CNS = tested on: SNB-19 CNS
SR leukemia = tested on: SR leukemia
HCC-2998 colon = tested on: HCC-2998 colon

Row | SMILES | GI50 (COLO 205 colon) [µM] | TGI (COLO 205 colon) [µM] | GI50 (HCT-116 colon) | TGI (HCT-116 colon) | GI50 (HOP-92 NSCLC) | GI50 (HT29 colon) | GI50 (IGROV1 ovarian) | GI50 (OVCAR-5 ovarian) | TGI (OVCAR-5 ovarian) [µM] | GI50 (SF-268 CNS) | TGI (SNB-19 CNS) | GI50 (SR leukemia) [µM] | TGI (SR leukemia) [µM] | TGI (HOP-92 NSCLC) [µM] | TGI (HT29 colon) [µM] | TGI (IGROV1 ovarian) [µM] | TGI (SF-268 CNS) [µM] | TGI (HCC-2998 colon) [µM] | GI50 (SNB-19 CNS) [µM] | GI50 (HCC-2998 colon) [µM]
1 | COc1ccc(CC2C(=O)OC(C)C(NC(=O)c3c4nc5c(C(=O)NC6C(=O)NC(C(C)C)C(=O)N7CCCC7C(=O)N(C)CC(=O)N(C)C(Cc7ccc(OC)cc7)C(=O)OC6C)ccc(C)c5oc-4c(C)c(=O)c3N)C(=O)NC(C(C)C)C(=O)N3CCCC3C(=O)N(C)CC(=O)N2C)cc1 (stereo unspecified) (I: TVP[Sar][NMeY](Me) / II: TVP[Sar][NMeY](Me); ester I:1-I:C, II:1-II:C; linker I:N-II:N via Actinocin(1to9); configuration not given here) | 0.00498 | 0.113 | < 0.01 µM and 0.00298 µM | 1.12 µM and > 1 µM | < 0.01 µM and 0.035 µM | < 0.01 µM and 0.00275 µM | < 0.01 µM and 0.00327 µM | < 0.01 µM and 0.0841 µM | > 0.651 | < 0.01 µM and 0.00484 µM | 1.55 µM and > 0.804 µM | 0.000646 | > 0.374 |  |  |  |  |  |  | 
2 | C[C@]12C[C@H](O)[C@H]3[C@@H](CCC4=CC(=O)CC[C@@]43C)[C@@H]1CC[C@@H]2c1csc(-c2ccccc2)n1 |  | > 100 |  | > 100 µM |  |  |  |  | > 100 |  | > 100 µM |  | > 100 | > 100 | > 100 | > 100 | > 100 |  |  | 
3 | O=c1c2cc3ccccc3n2c(=O)c2cc3ccccc3n12 |  |  |  | > 100 µM |  |  |  |  | > 100 |  | > 100 µM |  | > 100 | > 100 | > 100 |  | > 100 | > 100 |  | 
4 | COc1c(N2CCN(CN3C(=O)C(=Nc4ccc(S(=O)(=O)Nc5ncccn5)cc4)c4cc(Cl)ccc43)C(C)C2)c(F)cc2c(=O)c(C(=O)O)cn(C3CC3)c12 (stereo unspecified) | 18.4 | > 50 | 9.19 µM | 21.7 µM | 19.2 µM | 7.76 µM | 15.8 µM | > 50 µM | > 50 | 12.1 µM | 49.4 µM | 12.4 | > 50 | > 50 | > 50 | > 50 | > 50 |  | 15.7 | 
5 | CCCCn1c(=O)c(/C=C/C(=O)/C=C/c2cc3ccccc3n(CCCC)c2=O)cc2ccccc21 | 1.41 | 3.16 |  |  | 1.96 µM | 0.316 µM | 1.46 µM | 1.96 µM | 3.76 | 1.98 µM | 3.24 µM | 0.315 | > 100 | 4.12 | 0.922 | 3.42 | 5.17 | 2.26 | 1.63 | 1.01
6 | CC(C)(C)OC(=O)N[C@@H](Cc1ccccc1)C(=O)N(Cc1ccccc1)C1(C(=O)NCc2ccccc2)CCN(Cc2ccccc2)CC1 | 1.65 | 3.32 | 2.42 µM | 10.1 µM | 1.45 µM | 2.16 µM | 5.7 µM |  |  | 4.88 µM | > 100 µM | 2.33 | 7.51 | 5.33 | 6.82 | > 100 | > 100 | > 100 | 5.27 | 4.54
7 | CN1CCN(CCCOc2cc(O)c3c(=O)cc(-c4ccccc4)oc3c2)CC1 | 15.5 | 31.6 |  |  | 14.5 µM | 14.5 µM | 24.9 µM | 20.3 µM | 43.6 | 20.1 µM | 63.5 µM | 16.9 | 44.6 | 42.9 | 30.4 | 95.3 | 48.7 | 27.3 | 24.9 | 14.3
8 | CC1c2[nH]c3ccccc3c2CCN1O (stereo unspecified) |  | > 100 |  | > 100 µM |  |  |  |  | > 100 |  | > 100 µM |  |  | > 100 | > 100 | > 100 | > 100 | > 100 |  | 
9 | CCn1c2ccccc2c2cc(C(=O)c3ccc(C)c4ccccc34)ccc21 | 0.249 | 0.728 | 0.344 µM | 14.5 µM | 0.28 µM | 0.263 µM | 0.635 µM | 0.62 µM | > 100 | 0.877 µM | > 100 µM |  |  | 6.87 | 0.729 | > 100 | > 100 | 3.8 | 0.438 | 0.549
10 | COC(=O)C1CCc2nnc(-c3ccccc3)n21 (stereo unspecified) |  | > 100 |  | > 100 µM |  |  |  |  | > 100 |  | > 100 µM |  |  | > 100 | > 100 | > 100 | > 100 | > 100 |  | 
11 | CCn1c(-c2nonc2N)nc2c(N3CCCC3)nccc21 | 11 | > 25 | 8.47 µM | > 25 µM | 3.88 µM | 7.97 µM | 12 µM | 12.5 µM | > 25 | 13.3 µM | > 25 µM |  |  | 22.9 | > 25 | > 25 | > 25 | > 25 | 19.4 | > 25
